The nature of data set [1]: Mammalian cytotoxicity, MTT, HepG2. Format: cell-based, human. The settings on record: human, HepG2 hepatocellular carcinoma cells. The procedure: Hepatocellular carcinoma (HepG2), mouse fibroblast (3T3), human lung (HPL1A), and human keratinocyte (HaCat) cells were cultured in Dulbecco modified eagle media (DMEM) containing 10% fetal bovine serum (FBS) and 1% penicillin, streptomycin, and glutamine (PSG) at 37° C. and 5% CO2. Cells were collected and adjusted to […] to 4×10^5 cells/mL in phenol-red free DMEM and plated (100 μL) 96 well plates. 2-fold serial dilutions of 10× peptoid (11.1 μL) were added to each well in triplicate. Water (vehicle) was used as a negative control. Plates were incubated at 37° C. in 5% CO2 for 72 hours. Thiazolyl blue tetrazolium bromide (MTT) was added to each well (5 mg/mL; 20 μL) and incubated for 3 hours. Media was removed, DMSO (100 μL) was added, and plates were incubated at 37° C. for 10 minutes. Plates were read on a SpectraMax M5 plate reader (Abs. 570 nm). The concentration of compound resulting in a 50% reduction in growth compared to control (toxicity dose 50%; TD50) was determined using GraFit. This procedure was repeated three times on separate days.
Cytotoxicity against HepG2 hepatocellular carcinoma cells was done as previously described (Green et al. ACS infectious diseases, (2022); Corson et al. ACS medicinal chemistry letters 7 12, 1139-1144 (2016)). HepG2 cells were maintained in culture in T-75 flasks using Dulbecco's Modified Eagle's Media (DMEM) with phenol red pH indicator and supplemented with 10% fetal bovine serum (FBS) and 1% penicillin, streptomycin, and glutamine (PSG). The cells were incubated at 37° C. and 5% CO2 in a humidified incubator until desired confluency was achieved. The media was removed from the flask, and the cells were washed 1× with 10 mL of phosphate-buffered saline (PBS; 11.8 mM phosphate, 140.4 mM NaCl; pH 7.4) which was then discarded. To remove the adhered cells from the flask, 2 mL of trypsin was added, and the cells were incubated for 10 minutes. To quench the trypsin, 8 mL of phenol red-free DMEM with 10% FBS and 1% PGS was added, and the cell solution was transferred to a 15 mL conical tube. After the cells were pelleted by centrifugation at 1000 rpm for 5 minutes, the supernatant was poured off and cells resuspended in the volume of phenol red-free media needed for the assay. Cell concentration was determined by counting with a hemocytometer, and the solution was diluted with media until a concentration of 1×10^5 cells/mL was achieved. A 100 μL aliquot of cell solution was added to each well of a 96-well plate, apart from the 3 wells used for a media control. Cells were incubated for 2-3 hours at 37° C. and 5% CO2 until cells were adherent.
Compound stocks of 20 mg/mL were used to prepare 2-fold serial dilutions of each compound in sterile water, giving final concentrations of 200, 100, 50, 25, 12.5, 6.25, 3.13 and 1.56 μg/mL. 11.1 μL of prepared compound solutions was added to the appropriate wells in triplicate. A negative vehicle control of sterile water, as well as the aforementioned media control, were used. The plates were incubated for 72 hours at 37° C. and 5% CO2. After incubation, 20 μL of 5 mg/mL 3-(4,5-dimethylthiazol-2-yl)-2,5-diphenyltetrazolium bromide (MTT) in water was added to each well. The plate was incubated for 3 hours at 37° C. and 5% CO2. Media was removed from each well using a sterile glass Pasteur pipette. 100 μL of DMSO was added to each well and incubated for 15 minutes at 37° C. Absorbance was read at 570 nm using a SpectraMax M5 Plate Reader. This MTT assay was performed in biological duplicate unless discrepant results were observed. If this was the case, the assay was performed in biological triplicate for further verification. The reported value is the average of biological replicates with standard deviation.

A further data set has as its system C. neoformans. Format: cell-based, Cryptococcus neoformans. The settings on record: 72 h. The protocol: The minimum inhibitory concentration (MIC) of peptoids against fungal pathogens C. albicans and C. neoformans was determined following CLSI guidelines (CLSI. Reference method for broth dilution antifungal susceptibility testing of yeasts; approved standard-third edition; CLSI document M27-A3. (Clinical and Laboratory Standards Institute, 2008). […] This inoculant was diluted 1:100 into RPMI-MOPS and then further diluted 1:20 into RPMI-MOPS. 198 μL of inoculant was seeded into each well of a 96 well black-walled plate. 2-fold serial dilutions of 100× peptoid solutions were prepared in water and 2 μL of peptoid were added to each well in triplicate. […] MIC was defined as the lowest concentration of compound preventing fungal growth. This assay was repeated 3 times on separate days with each compound. […] The addition of 0.1 mL cell solution to 9.9 mL of RPMI-MOPS produced a 1:100 cell solution. After vortexing, 0.5 mL of the […] was added to 9.5 mL RPMI-MOPS to produce a 1:20 cell solution. 198 μL of the 1:20 solution was added to the wells of an opaque 96-well plate, apart from the wells designated for the medial control. […] Amphotericin B was used as a positive control, and sterile water was used for the vehicle control. The plates were incubated for 72 hours at 35° C. After incubation, the concentration of compound resulting in no visual growth was recorded as the MIC. All assays performed in biological triplicate on different days.

Structures are written as SMILES. In brackets after ≈: the same amount, converted by molar mass. Like-named read-outs stand apart in the source and are kept apart here. Where a SMILES comes first, the peptide text is derived from it. [ ]: non-standard residue; d: D form. The star is where a group is joined. Gly(N(CH2)2(3-indolyl)) = O=C(O)CNCCc1c[nH]c2ccccc12; Gly(Nα-4-Cl-benzyl) = O=C(O)CNCc1ccc(Cl)cc1; N(4-Br-benzyl)Gly = O=C(O)CNCc1ccc(Br)cc1; N(2-thienylmethyl)Gly = O=C(O)CNCc1cccs1; N(tridecyl)Gly = CCCCCCCCCCCCCNCC(=O)O; NBzl(4-I)Gly = O=C(O)CNCc1ccc(I)cc1; Gly(N-2-aminoethyl) = NCCNCC(=O)O; NFurfurylGly = O=C(O)CNCc1ccco1; X2 = CCCCCCCCN(CCCCCCCC)CC(=O)*; Gly(N-cHex) = O=C(O)CNC1CCCCC1; X1 = CCCCCCN(CCCCCC)CC(=O)*; Nphe = O=C(O)CNCc1ccccc1; Nlys = NCCCCNCC(=O)O; Sar = CNCC(=O)O

`CCCCCCCCCCCCCNCC(=O)N(CC(=O)N(CCCCN)CC(=O)N(CCCCN)CC(=O)N(CC(N)=O)C1CCCCC1)C1CCCCC1` [Compound 2] (H-[N(tridecyl)Gly][Gly(N-cHex)][Nlys][Nlys][Gly(N-cHex)]-NH2) displayed a CC50 at 72 h in data set [1] of 165 ± 97 µg/mL (≈ 208 µM). The “C. neoformans MIC” value with C. neoformans amounted to 3.13 µg/mL.

On to `CCCCCCN(CCCCCC)CC(=O)N(CC(=O)N(CCCCN)CC(=O)N(CCN)CC(=O)N(CC(N)=O)C1CCCCC1)C1CCCCC1` [Compound 6] (X1-[Gly(N-cHex)][Nlys][Gly(N-2-aminoethyl)][Gly(N-cHex)]-NH2), for which the CC50 at 72 h in data set [1] (Example 2, 72 hours, MTT, read-out: HepG2 TD50) is above 200 µg/mL. Further, the “C. neoformans MIC” value with C. neoformans was 100 µg/mL.

As for `CCCCCCCCN(CCCCCCCC)CC(=O)N(CC(=O)N(CCCCN)CC(=O)N(CCN)CC(=O)N(CC(N)=O)C1CCCCC1)C1CCCCC1` [Compound 7] (X2-[Gly(N-cHex)][Nlys][Gly(N-2-aminoethyl)][Gly(N-cHex)]-NH2), in data set [1], the CC50 at 72 h was determined as 162 ± 29 µg/mL (≈ 201 µM). In addition, the “C. neoformans MIC” value with C. neoformans is 6.25 µg/mL.

Compound `CCCCCCCCCCCCCNCC(=O)N(CC(=O)N(CCCCN)CC(=O)N(CCN)CC(=O)N(CC(N)=O)Cc1ccccc1)Cc1ccccc1` [Compound 15] (H-[N(tridecyl)Gly][Nphe][Nlys][Gly(N-2-aminoethyl)][Nphe]-NH2) registered a CC50 at 72 h in data set [1] of 145 ± 96 µg/mL (≈ 186 µM). Besides, the “C. neoformans MIC” value with C. neoformans was in the range of 1.56 to 3.13 µg/mL.

In the case of `CCCCCCCCCCCCCNCC(=O)N(CC(=O)N(CCCCN)CC(=O)N(CCN)CC(=O)N(CC(N)=O)Cc1ccc(Cl)cc1)Cc1ccc(Cl)cc1` [Compound 18] (H-[N(tridecyl)Gly][Gly(Nα-4-Cl-benzyl)][Nlys][Gly(N-2-aminoethyl)][Gly(Nα-4-Cl-benzyl)]-NH2), in data set [1], the CC50 at 72 h amounted to 71.8 ± 24 µg/mL (≈ 84.7 µM). In addition, the “C. neoformans MIC” value in the data set with C. neoformans is 3.13 µg/mL.

`CCCCCCCCCCCCCNCC(=O)N(CC(=O)N(CCCCN)CC(=O)N(CCN)CC(=O)N(CC(N)=O)Cc1ccc(Br)cc1)Cc1ccc(Br)cc1` [Compound 19] (H-[N(tridecyl)Gly][N(4-Br-benzyl)Gly][Nlys][Gly(N-2-aminoethyl)][N(4-Br-benzyl)Gly]-NH2) displayed a CC50 at 72 h in data set [1] of 72.4 ± 20 µg/mL (≈ 77.3 µM). The “C. neoformans MIC” value in the data set on C. neoformans was found to be 3.13 µg/mL.

As to `CCCCCCCCCCCCCNCC(=O)N(CC(=O)N(CCCCN)CC(=O)N(CCN)CC(=O)N(CC(N)=O)Cc1ccc(I)cc1)Cc1ccc(I)cc1` [Compound 20] (H-[N(tridecyl)Gly][NBzl(4-I)Gly][Nlys][Gly(N-2-aminoethyl)][NBzl(4-I)Gly]-NH2), the CC50 at 72 h in data set [1] was 72.2 ± 24 µg/mL (≈ 70 µM). Further, the “C. neoformans MIC” value with C. neoformans is 6.25 µg/mL.

`CCCCCCCCCCCCCNCC(=O)N(CC(=O)N(CCCCN)CC(=O)N(CCN)CC(=O)N(CC(N)=O)c1cccc2ccccc12)c1cccc2ccccc12` [Compound 21] had a CC50 at 72 h in data set [1] of 118 ± 19 µg/mL (≈ 139 µM). The “C. neoformans MIC” value in the data set with C. neoformans is 6.25 µg/mL.

Take `CCCCCCCCCCCCCNCC(=O)N(CC(=O)N(CCCCN)CC(=O)N(CCN)CC(=O)N(CC(N)=O)c1ccc2c(c1)CCC2)c1ccc2c(c1)CCC2` [Compound 22]: in data set [1], the CC50 at 72 h came to 91 ± 4 µg/mL (≈ 109 µM). Moreover, the “C. neoformans MIC” value with C. neoformans lay in the range of 1.56 to 3.13 µg/mL.

As for `CCCCCCCCCCCCCNCC(=O)N(CCc1c[nH]c2ccccc12)CC(=O)N(CCCCN)CC(=O)N(CCN)CC(=O)N(CCc1c[nH]c2ccccc12)CC(N)=O` [Compound 23] (H-[N(tridecyl)Gly][Gly(N(CH2)2(3-indolyl))][Nlys][Gly(N-2-aminoethyl)][Gly(N(CH2)2(3-indolyl))]-NH2), the CC50 at 72 h in data set [1] came out at 85 ± 10 µg/mL (≈ 96 µM). For the same compound, the “C. neoformans MIC” value with C. neoformans lay in the range of 1.56 to 3.13 µg/mL.

On to `CCCCCCCCCCCCCNCC(=O)N(CC(=O)N(CCCCN)CC(=O)N(CCN)CC(=O)N(CC(N)=O)Cc1ccco1)Cc1ccco1` [Compound 24] (H-[N(tridecyl)Gly][NFurfurylGly][Nlys][Gly(N-2-aminoethyl)][NFurfurylGly]-NH2), for which the CC50 at 72 h in data set [1] stood at 143 ± 94 µg/mL (≈ 188 µM). Further, the “C. neoformans MIC” value in the data set on C. neoformans lay in the range of 3.13 to 6.25 µg/mL.

Regarding `CCCCCCCCCCCCCNCC(=O)N(CC(=O)N(CCCCN)CC(=O)N(CCN)CC(=O)N(CC(N)=O)Cc1cccs1)Cc1cccs1` [Compound 25] (H-[N(tridecyl)Gly][N(2-thienylmethyl)Gly][Nlys][Gly(N-2-aminoethyl)][N(2-thienylmethyl)Gly]-NH2), the CC50 at 72 h in data set [1] turned out to be 154 ± 47 µg/mL (≈ 195 µM). In the data set with C. neoformans, the “C. neoformans MIC” value is 1.56 to 3.13 µg/mL.

Regarding `CNCC(=O)N(CC(=O)N(CCCCN)CC(=O)N(CCN)CC(=O)N(CC(N)=O)C1CCCCC1)C1CCCCC1` [Position 1] (H-[Sar][Gly(N-cHex)][Nlys][Gly(N-2-aminoethyl)][Gly(N-cHex)]-NH2), the CC50 at 72 h in data set [1] was above 200 µg/mL. The “MIC C. neoformans” value with C. neoformans was above 50.00 µg/mL.

With `CCCCCCCCCCCCCNCC(=O)N(C)CC(=O)N(CCCCN)CC(=O)N(CCN)CC(=O)N(CC(N)=O)C1CCCCC1` [Position 2] (H-[N(tridecyl)Gly][Sar][Nlys][Gly(N-2-aminoethyl)][Gly(N-cHex)]-NH2), the CC50 at 72 h in data set [1] is above 200 µg/mL. For the same compound, the “MIC C. neoformans” value in the data set with C. neoformans turned out to be 6.25 µg/mL (≈ 8.99 µM).

Turning to `CCCCCCCCCCCCCNCC(=O)N(CC(=O)N(C)CC(=O)N(CCN)CC(=O)N(CC(N)=O)C1CCCCC1)C1CCCCC1` [Position 3], in data set [1], the CC50 at 72 h is 83 µg/mL (≈ 118 µM). In the data set with C. neoformans, the “MIC C. neoformans” value amounted to 3.13 µg/mL (≈ 4.43 µM).

Take `CCCCCCCCCCCCCNCC(=O)N(CC(=O)N(CCCCN)CC(=O)N(C)CC(=O)N(CC(N)=O)C1CCCCC1)C1CCCCC1` [Position 4] (H-[N(tridecyl)Gly][Gly(N-cHex)][Nlys][Sar][Gly(N-cHex)]-NH2): the CC50 at 72 h in data set [1] was 84 µg/mL (≈ 114 µM). In the data set with C. neoformans, the “MIC C. neoformans” value turned out to be 3.13 µg/mL (≈ 4.26 µM).

`CCCCCCCCCCCCCNCC(=O)N(CC(=O)N(CCCCN)CC(=O)N(CCN)CC(=O)N(C)CC(N)=O)C1CCCCC1` [Position 5] (H-[N(tridecyl)Gly][Gly(N-cHex)][Nlys][Gly(N-2-aminoethyl)][Sar]-NH2) had a CC50 at 72 h in data set [1] above 200 µg/mL. Further, the “MIC C. neoformans” value against C. neoformans amounted to 6.25 µg/mL (≈ 8.99 µM).

The values above are taken from US20240352066A1, “ANTIMICROBIAL COMPOUNDS AND THE METHOD OF USE” (priority 2021, published 2024).
